Results on 5 compounds are retold here after US9156783B2, “Compounds for treating proliferative disorders” (Synta Pharmaceuticals Corp., priority 2006, dated 2015).

For this assay, the system named is inducible human Hsp70. Kind of assay: Hsp70 RNA induction by quantitative PCR analysis in Ramos B cells. The assay is classed as cell-based. The following applies: 500 nM compound, 6 hours; for % induction relative to Compound B: Compound B induction set to 100%; for fold induction at 0.5 µM: Homo sapiens, read-out: fold induction over DMSO. The procedure:
The ability of the compounds of the invention to induce Hsp70 RNA induction by quantitative PCR analysis was examined. Ramos B cells were treated with 500 nM each compound for 6 hours and the RNA was isolated from the cells. Quantitative PCR was performed as described below:
Details for Quantitative PCR are as follows:
500 ng of RNA from each sample was used for cDNA synthesis using iScript cDNA Synthesis Kit (Biorad, Cat #170-8891). 1 ul of cDNA mixture was used with the iQ SYBR Green Supermix (Biorad, Cat#170-8882) to perform quantitative PCR in an iCycler machine (Biorad) using standard protocols. QPCR for each sample/time point was performed in duplicate. The following primers for inducible human Hsp70 and gapdh were used: […]
Ct values were obtained from the iCycler program and used in an equation (2^−ΔΔCT) for determining the amount of target relative to gapdh expression. This compares the relative expression of Hsp70 to the corresponding levels of gapdh in each sample. Duplicate wells were averaged. The amount of N-Malonyl-bis(N′-methyl-N′thiobenzoylhydrazide) (Compound B) induction of Hsp70 was set to 100% and the percent of induction of Hsp70 by the compounds of the invention was determined relative to 100%.

As to `COP(=O)(CP(=O)(NN(C)C(=O)c1ccccc1)OC)NN(C)C(=O)c1ccccc1` (stereo not shown) [Compound 33], the “% induction relative to Compound B” value is recorded as 0.14% and the fold induction at 0.5 µM was 0.35.

Consider `COP(=O)(CP(=O)(NN(C)C(=S)c1ccccc1)OC)NN(C)C(=S)c1ccccc1` (stereo not shown) [Compound 30, Dimethyl N,N′-methylenebis(N′-methyl-N′(phenylcarbonothioyl)-phosphonohydrazidate)], for which the “% induction relative to Compound B” value worked out at 0.34% and the fold induction at 0.5 µM amounted to 0.85.

As for `CN(NC(=O)CC(=O)NN(C)/C(=N/S(C)(=O)=O)c1ccccc1)/C(=N/S(C)(=O)=O)c1ccccc1` [Compound 67, N′1,N′3-bis(methanesulfonimino(phenyl)methyl)-N′1,N′3-dimethylmalonohydrazide], the “% induction relative to Compound B” value is on record as 0.75% and the fold induction at 0.5 µM was found to be 1.87.

With `CNN=C(C(=O)NN(C)C(=S)c1ccccc1)C(=O)NN(C)C(=S)c1ccccc1` [Compound 71, N′1,N′3-dimethyl-2-(2-methylhydrazono)-N′1,N′3-di(phenylcarbonothioyl)-malonohydrazide], the “% induction relative to Compound B” value was found to be 17.59% and the fold induction at 0.5 µM worked out at 46.9.

In the case of `CN(NC(=O)CS(=O)(=O)NN(C)C(=S)c1ccccc1)C(=S)c1ccccc1` [Compound 68, N′-Methyl-2-(2-methyl-2-(phenylcarbonothioyl)hydrazinyl)-2-oxo-N′-(phenylcarbonothioyl)ethanesulfonohydrazide], the “% induction relative to Compound B” value was found to be 11.78% and the fold induction at 0.5 µM came out at 29.3.
